Laboratory results from PMC6320941, “Synthesis and Evaluation of 3-Substituted-4-(quinoxalin-6-yl) Pyrazoles as TGF-β Type I Receptor Kinase Inhibitors” (Molecules, 2018).

Assays:
p38α MAP kinase = p38α MAP kinase (Homo sapiens, UniProt Q16539); assay: Radiometric 33PanQinase p38α MAP kinase assay (ProQinase), ATF2 substrate; format: biochemical; details: for remaining activity at 10 µM: compound at 10 μM, in duplicate, read-out: Residual Activity (%) p38α
Text: We selected p38α MAP kinase to survey the selectivity profile of this series of compounds because its kinase domain is among the most homologous to that of ALK5 [27].
(§1) All kinase experiments were completed by the ProQinase (Freiburg, Germany). All protein kinases were expressed in Sf9 insect cells or in E. coli as recombinant GST-fusion proteins or His-tagged proteins, either as full-length or enzymatically active fragments. All kinases were obtained from human cDNAs and purified by either GSH-affinity chromatography or immobilized metal. The purity of the protein kinases was examined by SDS-PAGE/Coomassie staining. The identity was checked by mass spectroscopy.
(§2) A radiometric protein kinase assay (^33PanQinase® activity assay) was used for measuring the kinase activity of the two protein kinases. All kinase assays were performed in 96-well FlashPlates^TM from PerkinElmer (Boston, MA, USA) in 50 μL reaction volumes. The reaction cocktail was pipetted in four steps in the following order: 20 μL of assay buffer (standard buffer), 5 μL of ATP solution (in H2O), 5 μL of test compound (in 10% DMSO), 20 μL enzyme/substrate mix.
(§3) The assay for all protein kinases contained 70 mM HEPES-NaOH pH 7.5, 3 mM MgCl2, 3 mM MnCl2, 3 μM Na-orthovanadate, 1.2 mM DTT, 50 μg/mL PEG20000, ATP, [γ-^33P]-ATP, protein kinase, and substrate.
(§4) The reaction cocktail was incubated at 30 °C for 60 min. The reaction was halted with 50 μL of 2% (v/v) H3PO4, plates were aspirated and washed two times with 200 μL 0.9% (w/v) NaCl. Incorporation of ^33Pi was established with a microplate scintillation counter (PerkinElmer, Boston, MA, USA). All assays were performed with a BeckmanCoulter/SAGIAN™ Core System.

ALK5 = molecular target: T1, ALK5 (Homo sapiens, UniProt P36897); assay: Radiometric 33PanQinase ALK5 kinase assay (ProQinase), casein substrate; format: biochemical; details: for remaining activity at 10 µM: compound at 10 μM, in duplicate, read-out: Residual Activity (%) ALK5; for Selectivity Index: IC50 of p38α/IC50 of ALK5; for ALK5 inhibitory activity in words: at up to 5.0 μM for 18a–d, 'at up to 2.26 μM' for pyrimidin-4-yl compounds
T1 sequence (P36897 205-495 limits assumed): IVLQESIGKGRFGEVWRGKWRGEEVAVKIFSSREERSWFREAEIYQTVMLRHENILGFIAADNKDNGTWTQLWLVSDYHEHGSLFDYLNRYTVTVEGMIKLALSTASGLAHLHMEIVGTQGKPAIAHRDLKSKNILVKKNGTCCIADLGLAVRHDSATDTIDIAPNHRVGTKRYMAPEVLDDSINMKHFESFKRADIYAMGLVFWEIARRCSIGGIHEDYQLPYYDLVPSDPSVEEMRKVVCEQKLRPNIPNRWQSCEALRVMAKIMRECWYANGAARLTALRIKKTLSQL
Procedure: To investigate whether compounds 14a–d, 15a–d, 16a–d, 17a–d, 18a–d, and 19a–d would inhibit ALK5, a kinase assay for preliminary screening was performed using the purified human ALK5 kinase domain produced in Sf9 insect cells and compounds at 10 μM.
as §1, §2, §3, §4

Sequence of p38α MAP kinase (Q16539 whole entry, the tested form may be a part): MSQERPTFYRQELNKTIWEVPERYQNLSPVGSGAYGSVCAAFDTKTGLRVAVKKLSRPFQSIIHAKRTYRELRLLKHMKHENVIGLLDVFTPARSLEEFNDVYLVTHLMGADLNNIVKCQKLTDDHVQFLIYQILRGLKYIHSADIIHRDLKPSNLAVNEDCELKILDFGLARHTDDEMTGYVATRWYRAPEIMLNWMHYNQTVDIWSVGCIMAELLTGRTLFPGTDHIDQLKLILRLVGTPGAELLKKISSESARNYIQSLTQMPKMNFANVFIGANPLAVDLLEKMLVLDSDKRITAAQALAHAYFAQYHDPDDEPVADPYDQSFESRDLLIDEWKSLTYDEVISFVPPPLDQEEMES

| Structure (SMILES) | IC50 (p38α MAP kinase) [µM] | remaining activity at 10 µM (p38α MAP kinase) [%] | remaining activity at 10 µM (ALK5) [%] | melting point [°C] | IC50 (ALK5) [µM] | Selectivity Index (ALK5) | fold more selective than compound 3 (LY-2157299) against p38α MAP kinase (ALK5) [fold] | inhibition at 10 µM (ALK5; at 10 µM) [%] | ALK5 inhibitory activity in words (ALK5) |
| --- | --- | --- | --- | --- | --- | --- | --- | --- | --- |
| Cc1cccc(-c2nn3c(c2-c2ccnc4ccc(C(N)=O)cc24)CCC3)n1 [Compound 3, LY-2157299, reference compound] | 0.49 | 4 | 1 |  |  |  |  |  |  |
| CN(C)c1cccc(-c2nn(CC(=O)Nc3ccccc3)cc2-c2ccc3nccnc3c2)n1 [Compound 14a, 2-(3-(6-(Dimethylamino)pyridin-2-yl)-4-(quinoxalin-6-yl)-1H-pyrazol-1-yl)-N-phenylacetamide] |  | 110 | 85 | 212.5 to 214 |  |  |  |  |  |
| CN(C)c1cccc(-c2nn(CC(=O)Nc3ccccc3F)cc2-c2ccc3nccnc3c2)n1 [Compound 14b, 2-(3-(6-(Dimethylamino)pyridin-2-yl)-4-(quinoxalin-6-yl)-1H-pyrazol-1-yl)-N-(2-fluorophenyl)acetamide] |  | 118 | 84 | 190.5 to 193 |  |  |  |  |  |
| CN(C)c1cccc(-c2nn(CC(=O)Nc3cccc(F)c3)cc2-c2ccc3nccnc3c2)n1 [Compound 14c, 2-(3-(6-(Dimethylamino)pyridin-2-yl)-4-(quinoxalin-6-yl)-1H-pyrazol-1-yl)-N-(3-fluorophenyl)acetamide] |  | 121 | 37 | 176.5 to 178.5 |  |  |  |  |  |
| CN(C)c1cccc(-c2nn(CC(=O)Nc3cccc(C#N)c3)cc2-c2ccc3nccnc3c2)n1 [Compound 14d, N-(3-Cyanophenyl)-2-(3-(6-(dimethylamino)pyridin-2-yl)-4-(quinoxalin-6-yl)-1H-pyrazol-1-yl)acetamide] |  | 121 | 95 | 218.5 to 221.5 |  |  |  |  |  |
| CN(C)c1cccc(-c2c(-c3ccc4nccnc4c3)cnn2CC(=O)Nc2ccccc2)n1 [Compound 15a, 2-(5-(6-(Dimethylamino)pyridin-2-yl)-4-(quinoxalin-6-yl)-1H-pyrazol-1-yl)-N-phenylacetamide] |  | 118 | 95 |  |  |  |  |  |  |
| CN(C)c1cccc(-c2c(-c3ccc4nccnc4c3)cnn2CC(=O)Nc2ccccc2F)n1 [Compound 15b, 2-(5-(6-(Dimethylamino)pyridin-2-yl)-4-(quinoxalin-6-yl)-1H-pyrazol-1-yl)-N-(2-fluorophenyl)acetamide] |  | 117 | 87 | 130.2 to 133 |  |  |  |  |  |
| CN(C)c1cccc(-c2c(-c3ccc4nccnc4c3)cnn2CC(=O)Nc2cccc(F)c2)n1 [Compound 15c, 2-(5-(6-(Dimethylamino)pyridin-2-yl)-4-(quinoxalin-6-yl)-1H-pyrazol-1-yl)-N-(3-fluorophenyl)acetamide] |  | 109 | 88 | 146.5 to 147.6 |  |  |  |  |  |
| CN(C)c1cccc(-c2c(-c3ccc4nccnc4c3)cnn2CC(=O)Nc2cccc(C#N)c2)n1 [Compound 15d, N-(3-Cyanophenyl)-2-(5-(6-(dimethylamino)pyridin-2-yl)-4-(quinoxalin-6-yl)-1H-pyrazol-1-yl)acetamide] |  | 109 | 94 | 145.5 to 148 |  |  |  |  |  |
| Cc1csc(-c2nn(CC(=O)Nc3ccccc3)cc2-c2ccc3nccnc3c2)n1 [Compound 16a, 2-(3-(4-Methylthiazol-2-yl)-4-(quinoxalin-6-yl)-1H-pyrazol-1-yl)-N-phenylacetamide] |  | 98 | 5 | 190.2 to 192.5 |  |  |  |  |  |
| Cc1csc(-c2nn(CC(=O)Nc3ccccc3F)cc2-c2ccc3nccnc3c2)n1 [Compound 16b, N-(2-Fluorophenyl)-2-(3-(4-methylthiazol-2-yl)-4-(quinoxalin-6-yl)-1H-pyrazol-1-yl)acetamide] |  | 103 | 5 | 197.5 to 200 |  |  |  |  |  |
| Cc1csc(-c2nn(CC(=O)Nc3cccc(F)c3)cc2-c2ccc3nccnc3c2)n1 [Compound 16c, N-(3-Fluorophenyl)-2-(3-(4-methylthiazol-2-yl)-4-(quinoxalin-6-yl)-1H-pyrazol-1-yl)acetamide] |  | 101 | 3 | 212.1 to 213.5 |  |  |  |  |  |
| Cc1csc(-c2c(-c3ccc4nccnc4c3)cnn2CC(=O)Nc2ccccc2)n1 [Compound 17a, 2-(5-(4-Methylthiazol-2-yl)-4-(quinoxalin-6-yl)-1H-pyrazol-1-yl)-N-phenylacetamide] |  | 68 | 46 |  |  |  |  |  |  |
| Cc1csc(-c2c(-c3ccc4nccnc4c3)cnn2CC(=O)Nc2ccccc2F)n1 [Compound 17b, N-(2-Fluorophenyl)-2-(5-(4-methylthiazol-2-yl)-4-(quinoxalin-6-yl)-1H-pyrazol-1-yl)acetamide] |  | 54 | 73 |  |  |  |  |  |  |
| Cc1csc(-c2c(-c3ccc4nccnc4c3)cnn2CC(=O)Nc2cccc(F)c2)n1 [Compound 17c, N-(3-Fluorophenyl)-2-(5-(4-methylthiazol-2-yl)-4-(quinoxalin-6-yl)-1H-pyrazol-1-yl)acetamide] |  | 66 | 69 |  |  |  |  |  |  |
| Cc1csc(-c2c(-c3ccc4nccnc4c3)cnn2CC(=O)Nc2cccc(C#N)c2)n1 [Compound 17d, N-(3-Cyanophenyl)-2-(5-(4-methylthiazol-2-yl)-4-(quinoxalin-6-yl)-1H-pyrazol-1-yl)acetamide] |  | 97 | 58 |  |  |  |  |  |  |
| Cc1csc(-c2nn(CC(=S)Nc3ccccc3)cc2-c2ccc3nccnc3c2)n1 [Compound 19a, 2-(3-(4-Methylthiazol-2-yl)-4-(quinoxalin-6-yl)-1H-pyrazol-1-yl)-N-phenylethanethioamide] | > 10 | 102 | 5 |  | 0.57 | >17 |  |  |  |
| Cc1csc(-c2nn(CC(=S)Nc3ccccc3F)cc2-c2ccc3nccnc3c2)n1 [Compound 19b, N-(2-Fluorophenyl)-2-(3-(4-methylthiazol-2-yl)-4-(quinoxalin-6-yl)-1H-pyrazol-1-yl)ethanethioamide] | > 10 | 92 | 2 |  | 0.28 | >35 | 9.0 | 98 |  |
| Cc1csc(-c2nn(CC(=S)Nc3cccc(F)c3)cc2-c2ccc3nccnc3c2)n1 [Compound 19c, N-(3-Fluorophenyl)-2-(3-(4-methylthiazol-2-yl)-4-(quinoxalin-6-yl)-1H-pyrazol-1-yl)ethanethioamide] | > 10 | 109 | 2 |  | 0.33 | >30 |  |  |  |
| Cc1csc(-c2nn(CC(=S)Nc3cccc(C#N)c3)cc2-c2ccc3nccnc3c2)n1 [Compound 19d, N-(3-Cyanophenyl)-2-(3-(4-methylthiazol-2-yl)-4-(quinoxalin-6-yl)-1H-pyrazol-1-yl)ethanethioamide] | > 10 | 105 | 13 |  | 0.37 | >27 |  |  |  |
| Fc1ccccc1NC(=S)Cn1cc(-c2ccc3nccnc3c2)c(-c2ccncn2)n1 [Compound 27b, N-(2-Fluorophenyl)-2-(3-(pyrimidin-4-yl)-4-(quinoxalin-6-yl)-1H-pyrazol-1-yl)ethanethioamide] | > 10 |  |  |  | > 10 |  |  |  | no significant ALK5 inhibition activity |
| N#Cc1cccc(NC(=S)Cn2cc(-c3ccc4nccnc4c3)c(-c3ccncn3)n2)c1 [Compound 27d, N-(3-Cyanophenyl)-2-(3-(pyrimidin-4-yl)-4-(quinoxalin-6-yl)-1H-pyrazol-1-yl)ethanethioamide] | > 10 |  |  |  | 2.26 | >4 |  |  | no significant ALK5 inhibition activity |
